Source: US12459899B2, “Isoquinolinone derivatives, method for preparing the same, and pharmaceutical composition for preventing or treating poly(ADP-ribose) polymerase-1-related diseases, comprising the same as active ingredient” (DIGMBIO. INC., priority 2019, dated 2025)

Target: PARP-1 (poly[ADP-ribose] polymerase 1) enzyme (Homo sapiens (Human), UniProt P09874)
Test: PARP-1 (poly[ADP-ribose] polymerase 1) enzyme inhibitory ability, Trevigen assay kit
Format: biochemical
Conditions: for inhibition at 0.001 µM: 1 nM compound, read-out: PAR P-1 Inhibitory ability at 1 nM
How it was run: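 Human PARP-1 activity was measured with a Trevigen assay kit in histone-coated 96-well plates rehydrated with 50 μL of 1×PARP buffer for 30 minutes. Enzyme (0.5 unit/well) and compound were preincubated 10 minutes at room temperature, then 25 μL of 1×PARP cocktail with biotinylated NAD and activated DNA was added for 1 hour.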

Chain of PARP-1 (poly[ADP-ribose] polymerase 1) enzyme (P09874 whole entry): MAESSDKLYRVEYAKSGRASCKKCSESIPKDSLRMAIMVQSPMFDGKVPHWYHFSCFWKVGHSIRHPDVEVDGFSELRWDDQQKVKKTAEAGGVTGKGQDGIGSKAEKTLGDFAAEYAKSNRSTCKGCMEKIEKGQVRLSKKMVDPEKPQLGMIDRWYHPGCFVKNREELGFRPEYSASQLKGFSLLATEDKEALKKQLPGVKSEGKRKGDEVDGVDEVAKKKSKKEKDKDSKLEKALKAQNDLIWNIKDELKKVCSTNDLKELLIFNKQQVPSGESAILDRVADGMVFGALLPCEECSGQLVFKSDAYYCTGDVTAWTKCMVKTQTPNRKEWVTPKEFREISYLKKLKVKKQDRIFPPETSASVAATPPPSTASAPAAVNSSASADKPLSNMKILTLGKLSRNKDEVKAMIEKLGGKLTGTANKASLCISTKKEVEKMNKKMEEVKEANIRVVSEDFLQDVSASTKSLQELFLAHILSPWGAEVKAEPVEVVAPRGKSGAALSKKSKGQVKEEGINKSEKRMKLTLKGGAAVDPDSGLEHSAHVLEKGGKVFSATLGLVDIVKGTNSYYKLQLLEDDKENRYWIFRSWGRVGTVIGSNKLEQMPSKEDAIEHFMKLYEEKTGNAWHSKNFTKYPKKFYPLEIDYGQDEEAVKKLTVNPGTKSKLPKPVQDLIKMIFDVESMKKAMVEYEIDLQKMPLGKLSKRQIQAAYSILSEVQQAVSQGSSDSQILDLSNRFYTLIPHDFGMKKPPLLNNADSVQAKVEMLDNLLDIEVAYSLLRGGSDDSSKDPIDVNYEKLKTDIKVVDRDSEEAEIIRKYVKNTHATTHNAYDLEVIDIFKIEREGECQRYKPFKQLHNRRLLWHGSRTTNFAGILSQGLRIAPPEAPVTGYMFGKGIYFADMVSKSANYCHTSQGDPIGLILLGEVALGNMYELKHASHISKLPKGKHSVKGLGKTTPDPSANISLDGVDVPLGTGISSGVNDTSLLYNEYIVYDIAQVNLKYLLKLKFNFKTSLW

SMILES	inhibition at 0.001 µM	IC50 (PARP-1 enzyme activity)
Cc1ccc(F)c2c(=O)[nH]c(CCCN3C4CCC3CN(c3ccc(F)cc3)C4)cc12 [Example 198, 8-fluoro-3-(3-(3-(4-fluorophenyl)-3,8-diazabicyclo[3.2.1]octan-8-yl)propyl)-5-methylisoquinolin-1(2H)-one]	< 50%	
Cc1ccc(F)c2c(=O)[nH]c(CCCN3C4CCC3CN(c3ccc(C#N)cn3)C4)cc12 [Example 199]	< 50%	
Cc1ccc(F)c2c(=O)[nH]c(CCCN3C4CCC3CN(c3ccc(C#N)nc3)C4)cc12 [Example 200, 5-(8-(3-(8-fluoro-5-methyl-1-oxo-1,2-dihydroisoquinolin-3-yl)propyl)-3,8-diazabicyclo[3.2.1]octan-3-yl)picolinonitrile]	50 to 80%	1.24 nM
Cc1ccc(F)c2c(=O)[nH]c(CCCN3C4CCC3CN(c3ccc(Cl)cc3)C4)cc12 [Example 201, 3-(3-(3-(4-chlorophenyl)-3,8-diazabicyclo[3.2.1]octan-8-yl)propyl)-8-fluoro-5-methylisoquinolin-1(2H)-one]	< 50%	
Cc1ccc(F)c2c(=O)[nH]c(CCCN3C4CCC3CN(c3ccc(F)nc3)C4)cc12 [Example 202, 8-fluoro-3-(3-(3-(6-fluoropyridin-3-yl)-3,8-diazabicyclo[3.2.1]octan-8-yl)propyl)-5-methylisoquinolin-1(2H)-one]	< 50%	
N#Cc1ccc(N2CC3CCC(C2)N3CCCc2cc3cccc(F)c3c(=O)[nH]2)nc1 [Example 203, 6-(8-(3-(8-fluoro-1-oxo-1,2-dihydroisoquinolin-3-yl)propyl)3,8-diazabicyclo[3.2.1]octan-3-yl)nicotinonitrile]	< 50%	
N#Cc1ccc(N2CC3CCC(C2)N3CCCc2cc3ccc(F)cc3c(=O)[nH]2)nc1 [Example 204, 6-(8-(3-(7-fluoro-1-oxo-1,2-dihydroisoquinolin-3-yl)propyl)-3,8-diazabicyclo[3.2.1]octan-3-yl)nicotinonitrile]	50 to 80%	
Cc1cc(F)cc2c(=O)[nH]c(CCCN3C4CCC3CN(c3ccc(C#N)cn3)C4)cc12 [Example 205, 6-(8-(3-(7-fluoro-5-methyl-1-oxo-1,2-dihydroisoquinolin-3-yl)propyl)-3,8-diazabicyclo[3.2.1]octan-3-yl)nicotinonitrile]	50 to 80%	
N#Cc1ccc(N2CC3CCC(C2)N3C(=O)CCc2cc3cccc(F)c3c(=O)[nH]2)nc1 [Example 206, 6-(8-(3-(8-fluoro-1-oxo-1,2-dihydroisoquinolin-3-yl)propanoyl)-3,8-diazabicyclo[3.2.1]octan-3-yl)nicotinonitrile]	< 50%	
Cc1ccc(F)c2c(=O)[nH]c(CCC(=O)N3C4CCC3CN(c3ccc(C#N)cn3)C4)cc12 [Example 207, 6-(8-(3-(8-fluoro-5-methyl-1-oxo-1,2-dihydroisoquinolin-3-yl)propanoyl)-3,8-diazabicyclo[3.2.1]octan-3-yl)nicotinonitrile]	< 50%	
Cc1ccc(F)c2c(=O)[nH]c(CCC(=O)N3C4CCC3CN(c3ccc(F)cc3)C4)cc12 [Example 208, 8-fluoro-3-(3-(3-(4-fluorophenyl)-3,8-diazabicyclo[3.2.1]octan-8-yl)-3-oxopropyl)-5-methylisoquinolin-1(2H)-one]	< 50%	
Cc1ccc(F)c2c(=O)[nH]c(CCC(=O)N3C4CCC3CN(c3ccc(Cl)cc3)C4)cc12 [Example 210, 3-(3-(3-(4-chlorophenyl)-3,8-diazabicyclo[3.2.1]octan-8-yl)-3-oxopropyl)-8-fluoro-5-methylisoquinolin-1(2H)-one]	< 50%	
Cc1ccc(F)c2c(=O)[nH]c(CCC(=O)N3C4CCC3CN(c3ccc(F)nc3)C4)cc12 [Example 211, 8-fluoro-3-(3-(3-(6-fluoropyridin-3-yl)-3,8-diazabicyclo[3.2.1]octan-8-yl)-3-oxopropyl)-5-methylisoquinolin-1(2H)-one]	< 50%	
Cc1ccc(F)c2c(=O)[nH]c(CCC(=O)N3C4CCC3CN(c3ccc(F)cn3)C4)cc12 [Example 212, 8-fluoro-3-(3-(3-(5-fluoropyridin-2-yl)-3,8-diazabicyclo[3.2.1]octan-8-yl)-3-oxopropyl)-5-methylisoquinolin-1(2H)-one]	< 50%	
Cc1cc(F)cc2c(=O)[nH]c(CCC(=O)N3C4CCC3CN(c3ccc(C#N)cc3)C4)cc12 [Example 213, 4-(8-(3-(7-fluoro-5-methyl-1-oxo-1,2-dihydroisoquinolin-3-yl)propanoyl)-3,8-diazabicyclo[3.2.1]octan-3-yl)benzonitrile]	< 50%	
Cc1cc(F)cc2c(=O)[nH]c(CCC(=O)N3C4CCC3CN(c3ccc(C#N)cn3)C4)cc12 [Example 214]	< 50%	
Cc1cc(F)cc2c(=O)[nH]c(CCC(=O)N3C4CCC3CN(c3ccc(F)cc3)C4)cc12 [Example 215, 7-fluoro-3-(3-(3-(4-fluorophenyl)-3,8-diazabicyclo[3.2.1]octan-8-yl)-3-oxopropyl)-5-methylisoquinolin-1(2H)-one]	< 50%	
Cc1cc(F)cc2c(=O)[nH]c(CCC(=O)N3C4CCC3CN(c3ccc(Cl)cc3)C4)cc12 [Example 216, 3-(3-(3-(4-chlorophenyl)-3,8-diazabicyclo[3.2.1]octan-8-yl)-3-oxopropyl)-7-fluoro-5-methylisoquinolin-1(2H)-one]	< 50%	
Cc1cc(F)cc2c(=O)[nH]c(CCC(=O)N3C4CCC3CN(c3ccc(F)nc3)C4)cc12 [Example 217, 7-fluoro-3-(3-(3-(6-fluoropyridin-3-yl)-3,8-diazabicyclo[3.2.1]octan-8-yl)-3-oxopropyl)-5-methylisoquinolin-1(2H)-one]	< 50%	
Cc1cc(F)cc2c(=O)[nH]c(CCC(=O)N3C4CCC3CN(c3ccc(F)cn3)C4)cc12 [Example 219, 7-fluoro-3-(3-(3-(5-fluoropyridin-2-yl)-3,8-diazabicyclo[3.2.1]octan-8-yl)-3-oxopropyl)-5-methylisoquinolin-1(2H)-one]	< 50%	
N#Cc1ccc(N2CC3CCC(C2)N3C(=O)CCc2cc3ccc(F)cc3c(=O)[nH]2)nc1 [Example 220, 6-(8-(3-(7-fluoro-1-oxo-1,2-dihydroisoquinolin-3-yl)propanoyl)3,8-diazabicyclo[3.2.1]octan-3-yl)nicotinonitrile]	< 50%	
N#Cc1ccc(N2CCN(CCCc3cc4ncccc4c(=O)[nH]3)CC2)cc1 [Example 221, 4-(4-(3-(5-oxo-5,6-dihydro-1,6-naphthyridin-7-yl)propyl)piperazin-1-yl)benzonitrile]	50 to 80%	
N#Cc1ccc(N2CCN(CCCc3cc4ncccc4c(=O)[nH]3)CC2)nc1 [Example 222, 6-(4-(3-(5-oxo-5,6-dihydro-1,6-naphthyridin-7-yl)propyl)piperazin-1-yl)nicotinonitrile]	< 50%	
O=c1[nH]c(CCCN2CCN(c3ccc(F)cc3)CC2)cc2ncccc12 [Example 223, 7-(3-(4-(4-fluorophenyl)piperazin-1-yl)propyl)-1,6-naphthyridin-5(6H)-one]	< 50%	
O=c1[nH]c(CCCN2CCN(c3cccc(F)c3)CC2)cc2ncccc12 [Example 224, 7-(3-(4-(3-fluorophenyl)piperazin-1-yl)propyl)-1,6-naphthyridin-5(6H)-one]	< 50%	
